Measured values as given in ChEMBL document CHEMBL1201861, “Genomics of Drug Sensitity in Cancer screening data, Wellcome Trust Sanger Institute”.

Tests used:
Test in all cases: cells
[1] = test system: HC-1; type: functional, cell-based; conditions: Homo sapiens;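 also: growth inhibition of HC-1 cells measured by a cell viability assay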
Description: SANGER: Inhibition of human HC-1 cell growth in a cell viability assay.

[2] = test system: NCI-H1092; type: functional, cell-based; conditions: Homo sapiens;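 also: cell growth inhibition measured with a cell viability assay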
Description: SANGER: Inhibition of human NCI-H1092 cell growth in a cell viability assay.

[3] = test system: SW1573; type: functional, cell-based, Homo sapiens; conditions: Homo sapiens, SW1573;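 also: growth inhibition of SW1573 cells, read out with a cell viability assay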
Description: SANGER: Inhibition of human SW1573 cell growth in a cell viability assay.

[4] = test system: SK-UT-1; type: functional, cell-based, Homo sapiens; conditions: Homo sapiens, SK-UT-1;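 also: growth inhibition of SK-UT-1 cells, measured by a cell viability assay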
Description: SANGER: Inhibition of human SK-UT-1 cell growth in a cell viability assay.

[5] = test system: SHP77; type: functional, cell-based, Homo sapiens, SHP-77; conditions: Homo sapiens, SHP77;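 also: growth inhibition of human SHP-77 cells measured by a cell viability assay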
Description: SANGER: Inhibition of human SHP-77 cell growth in a cell viability assay.

[6] = test system: G-401; type: functional, cell-based, Homo sapiens; conditions: Homo sapiens, G-401
Description: SANGER: Inhibition of human G-401 cell growth in a cell viability assay.

[7] = test system: A498; type: functional, cell-based, Homo sapiens; conditions: Homo sapiens, A498;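 also: growth inhibition of human A498 cells, read out with a cell viability assay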
Description: SANGER: Inhibition of human A498 cell growth in a cell viability assay.

[8] = test system: CAL-62; type: functional, cell-based, Homo sapiens; conditions: Homo sapiens, CAL-62;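 also: growth inhibition of CAL-62 cells, read out with a cell viability assay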
Description: SANGER: Inhibition of human CAL-62 cell growth in a cell viability assay.

[9] = test system: BB49-HNC; type: functional, cell-based, Homo sapiens; conditions: Homo sapiens, BB49-HNC;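 also: cell viability assay read-out, reported as inhibition of BB49-HNC cell growth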
Description: SANGER: Inhibition of human BB49-HNC cell growth in a cell viability assay.

[10] = test system: BCPAP; type: functional, cell-based, Homo sapiens; conditions: Homo sapiens, BCPAP;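 also: growth inhibition of BCPAP cells, read out in a cell viability assay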
Description: SANGER: Inhibition of human BCPAP cell growth in a cell viability assay.

[11] = test system: NCI-H1755; type: functional, cell-based, Homo sapiens; conditions: Homo sapiens, NCI-H1755;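 also: cell viability readout used to measure growth inhibition of NCI-H1755 cells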
Description: SANGER: Inhibition of human NCI-H1755 cell growth in a cell viability assay.

[12] = test system: 647-V; type: functional, cell-based, Homo sapiens; conditions: Homo sapiens, 647-V;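 also: growth inhibition of 647-V cells, read out with a cell viability assay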
Description: SANGER: Inhibition of human 647-V cell growth in a cell viability assay.

[13] = test system: NCI-H1651; type: functional, cell-based, Homo sapiens; conditions: Homo sapiens, NCI-H1651;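 also: Read-out is a cell viability assay, with IC50 expressing inhibition of NCI-H1651 cell growth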
Description: SANGER: Inhibition of human NCI-H1651 cell growth in a cell viability assay.

[14] = test system: RPMI-8226; type: functional, cell-based; conditions: Homo sapiens
Description: SANGER: Inhibition of human RPMI-8226 cell growth in a cell viability assay.

[15] = test system: H4; type: functional, cell-based; conditions: Homo sapiens
Description: SANGER: Inhibition of human H4 cell growth in a cell viability assay.

[16] = test system: LB831-BLC; type: functional, cell-based, Homo sapiens; conditions: Homo sapiens, LB831-BLC;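 also: growth inhibition of LB831-BLC cells, read out with a cell viability assay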
Description: SANGER: Inhibition of human LB831-BLC cell growth in a cell viability assay.

[17] = test system: LB373-MEL-D; type: functional, cell-based, Homo sapiens; conditions: Homo sapiens, LB373-MEL-D;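 also: growth inhibition of the cell line, read out in a cell viability assay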
Description: SANGER: Inhibition of human LB373-MEL-D cell growth in a cell viability assay.

[18] = test system: NY; type: functional, cell-based, Homo sapiens; conditions: Homo sapiens, NY
Description: SANGER: Inhibition of human NY cell growth in a cell viability assay.

[19] = test system: COLO-679; type: functional, cell-based, Homo sapiens; conditions: Homo sapiens, COLO-679
Description: SANGER: Inhibition of human COLO-679 cell growth in a cell viability assay.

[20] = test system: HCE-4; type: functional, cell-based, Homo sapiens; conditions: Homo sapiens, HCE-4;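 also: cell viability assay measuring inhibition of growth in the human HCE-4 cell line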
Description: SANGER: Inhibition of human HCE-4 cell growth in a cell viability assay.

[21] = test system: GR-ST; type: functional, cell-based; conditions: Homo sapiens
Description: SANGER: Inhibition of human GR-ST cell growth in a cell viability assay.

[22] = test system: SW13; type: functional, cell-based, Homo sapiens; conditions: Homo sapiens, SW13;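 also: IC50 is inhibition of SW13 cell growth, read out with a cell viability assay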
Description: SANGER: Inhibition of human SW13 cell growth in a cell viability assay.

[23] = test system: EW-3; type: functional, cell-based; conditions: Homo sapiens;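 also: cell viability assay read-out, IC50 reflects inhibition of growth of the EW-3 cells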
Description: SANGER: Inhibition of human EW-3 cell growth in a cell viability assay.

[24] = test system: SJSA-1; type: functional, cell-based, Homo sapiens; conditions: Homo sapiens, SJSA-1;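 also: growth inhibition of human SJSA-1 cells, read out through a cell viability measurement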
Description: SANGER: Inhibition of human SJSA-1 cell growth in a cell viability assay.

[25] = test system: YKG-1; type: functional, cell-based, Homo sapiens; conditions: Homo sapiens, YKG-1;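 also: cell growth inhibition, read out with a viability assay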
Description: SANGER: Inhibition of human YKG-1 cell growth in a cell viability assay.

[26] = test system: MHH-PREB-1; type: functional, cell-based; conditions: Homo sapiens;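 also: cell viability assay measuring inhibition of proliferation of human MHH-PREB-1 cells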
Description: SANGER: Inhibition of human MHH-PREB-1 cell growth in a cell viability assay.

[27] = test system: IST-SL1; type: functional, cell-based, Homo sapiens; conditions: Homo sapiens, IST-SL1;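 also: growth inhibition of human IST-SL1 cells, read out with a cell viability assay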
Description: SANGER: Inhibition of human IST-SL1 cell growth in a cell viability assay.

[28] = test system: SK-NEP-1; type: functional, cell-based; conditions: Homo sapiens;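 also: growth inhibition of human SK-NEP-1 cells, read out by a cell viability assay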
Description: SANGER: Inhibition of human SK-NEP-1 cell growth in a cell viability assay.

[29] = test system: D-336MG; type: functional, cell-based, Homo sapiens; conditions: Homo sapiens, D-336MG
Description: SANGER: Inhibition of human D-336MG cell growth in a cell viability assay.

[30] = test system: HTC-C3; type: functional, cell-based, Homo sapiens; conditions: Homo sapiens, HTC-C3;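 also: inhibition of cell growth, read out with a cell viability assay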
Description: SANGER: Inhibition of human HTC-C3 cell growth in a cell viability assay.

[31] = test system: TCC-SUP; type: functional, cell-based, Homo sapiens; conditions: Homo sapiens, TCC-SUP;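 also: growth inhibition of TCC-SUP cells, read out with a cell viability assay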
Description: SANGER: Inhibition of human TCCSUP cell growth in a cell viability assay.

[32] = test system: Becker; type: functional, cell-based, Homo sapiens; conditions: Homo sapiens, Becker;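 also: growth inhibition of Becker cells, read out with a cell viability assay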
Description: SANGER: Inhibition of human Becker cell growth in a cell viability assay.

[33] = test system: A4-Fuk; type: functional, cell-based; conditions: Homo sapiens;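 also: growth inhibition of A4-Fuk cells, read out by a cell viability assay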
Description: SANGER: Inhibition of human A4-Fuk cell growth in a cell viability assay.

[34] = test system: SNU-449; type: functional, cell-based, Homo sapiens; conditions: Homo sapiens, SNU-449
Description: SANGER: Inhibition of human SNU-449 cell growth in a cell viability assay.

[35] = test system: LB2241-RCC; type: functional, cell-based, Homo sapiens; conditions: Homo sapiens, LB2241-RCC;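 also: cell viability assay measuring how strongly the cultured human renal carcinoma line is prevented from growing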
Description: SANGER: Inhibition of human LB2241-RCC cell growth in a cell viability assay.

[36] = test system: SCC-15; type: functional, cell-based, Homo sapiens; conditions: Homo sapiens, SCC-15;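 also: growth inhibition of SCC-15 cells, read out with a cell viability assay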
Description: SANGER: Inhibition of human SCC-15 cell growth in a cell viability assay.

[37] = test system: HL-60; type: functional, cell-based; conditions: Homo sapiens;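 also: growth inhibition of human HL-60 cells, read out with a cell viability assay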
Description: SANGER: Inhibition of human HL-60 cell growth in a cell viability assay.

[38] = test system: MC116; type: functional, cell-based; conditions: Homo sapiens;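 also: growth inhibition of MC116 cells, read out with a cell viability assay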
Description: SANGER: Inhibition of human MC116 cell growth in a cell viability assay.

[39] = test system: SF-539; type: functional, cell-based, Homo sapiens; conditions: Homo sapiens, SF-539;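 also: Read-out is a cell viability assay, with IC50 reflecting inhibition of cell growth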
Description: SANGER: Inhibition of human SF539 cell growth in a cell viability assay.

[40] = test system: LS-513; type: functional, cell-based, Homo sapiens; conditions: Homo sapiens, LS-513
Description: SANGER: Inhibition of human LS-513 cell growth in a cell viability assay.

[41] = test system: MDA-MB-175-VII; type: functional, cell-based, Homo sapiens; conditions: Homo sapiens, MDA-MB-175-VII
[42] = test system: JVM-3; type: functional, cell-based; conditions: Homo sapiens;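 also: growth inhibition of human JVM-3 cells, read out with a cell viability assay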
Description: SANGER: Inhibition of human JVM-3 cell growth in a cell viability assay.

[43] = test system: OAW-42; type: functional, cell-based, Homo sapiens; conditions: Homo sapiens, OAW-42;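 also: growth inhibition of OAW-42 cells, read out with a cell viability assay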
Description: SANGER: Inhibition of human OAW-42 cell growth in a cell viability assay.

[44] = test system: P30-OHK; type: functional, cell-based; conditions: Homo sapiens;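 also: growth inhibition of the P30-OHK cell line, read out with a cell viability assay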
Description: SANGER: Inhibition of human P30-OHK cell growth in a cell viability assay.

[45] = test system: ATN-1; type: functional, cell-based; conditions: Homo sapiens;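 also: growth inhibition of human ATN-1 cells, read out with a cell viability assay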
Description: SANGER: Inhibition of human ATN-1 cell growth in a cell viability assay.

[46] = test system: MSTO-211H; type: functional, cell-based, Homo sapiens; conditions: Homo sapiens, MSTO-211H
Description: SANGER: Inhibition of human MSTO-211H cell growth in a cell viability assay.

[47] = test system: DEL; type: functional, cell-based; conditions: Homo sapiens;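 also: growth inhibition of the human DEL cell line, read out with a cell viability assay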
Description: SANGER: Inhibition of human DEL cell growth in a cell viability assay.

[48] = test system: NCI-H209; type: functional, cell-based; conditions: Homo sapiens;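 also: growth inhibition of human NCI-H209 cells, measured by a cell viability assay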
Description: SANGER: Inhibition of human NCI-H209 cell growth in a cell viability assay.

[49] = test system: ML-2; type: functional, cell-based; conditions: Homo sapiens;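 also: growth inhibition of ML-2 cells, measured with a cell viability readout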
Description: SANGER: Inhibition of human ML-2 cell growth in a cell viability assay.

[50] = test system: HuCCT-1; type: functional, cell-based, Homo sapiens, HuCCT1; conditions: Homo sapiens, HuCCT-1;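 also: growth inhibition of HuCCT-1 cells, read out by a cell viability assay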
Description: SANGER: Inhibition of human HuCCT1 cell growth in a cell viability assay.

[51] = test system: EW-24; type: functional, cell-based; conditions: Homo sapiens;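 also: human EW-24 cancer cell line, growth inhibition read out via a cell viability assay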
Description: SANGER: Inhibition of human EW-24 cell growth in a cell viability assay.

Question: Which results are given for `Nc1ccn([C@@H]2O[C@H](CO)[C@@H](O)[C@@H]2O)c(=O)n1` [CYTARABINE]?
Answer: IC50 [1]: 1.08 µM; IC50 [2]: > 2 µM; IC50 [3]: > 2 µM; IC50 [4]: 0.181 µM; IC50 [5]: > 2 µM; IC50 [6]: 0.758 µM; IC50 [7]: > 2 µM; IC50 [8]: 0.71 µM; IC50 [9]: > 2 µM; IC50 [10]: 0.501 µM; IC50 [11]: > 2 µM; IC50 [12]: 1.23 µM; IC50 [13]: > 2 µM; IC50 [14]: > 2 µM; IC50 [15]: 0.274 µM; IC50 [16]: > 2 µM; IC50 [17]: > 2 µM; IC50 [18]: > 2 µM; IC50 [19]: > 2 µM; IC50 [20]: 0.277 µM; IC50 [21]: 0.385 µM; IC50 [22]: 0.476 µM; IC50 [23]: 0.83 µM; IC50 [24]: 0.235 µM; IC50 [25]: 0.298 µM; IC50 [26]: 0.533 µM; IC50 [27]: > 2 µM; IC50 [28]: > 2 µM; IC50 [29]: 0.805 µM; IC50 [30]: 0.459 µM; IC50 [31]: > 2 µM; IC50 [32]: 1.1 µM; IC50 [33]: 1.17 µM; IC50 [34]: > 2 µM; IC50 [35]: 0.0553 µM; IC50 [36]: 1.08 µM; IC50 [37]: > 2 µM; IC50 [38]: 1.28 µM; IC50 [39]: 0.717 µM; IC50 [40]: 0.38 µM; IC50 [41]: 1.99 µM; IC50 [42]: 1.45 µM; IC50 [43]: 1.25 µM; IC50 [44]: 0.0565 µM; IC50 [45]: 0.366 µM; IC50 [46]: 0.324 µM; IC50 [47]: 0.875 µM; IC50 [48]: > 2 µM; IC50 [49]: 0.27 µM; IC50 [50]: > 2 µM; IC50 [51]: 0.794 µM

Question: Which results are given for `O=C(c1cc(Cc2n[nH]c(=O)c3ccccc23)ccc1F)N1CCN(C(=O)C2CC2)CC1` [OLAPARIB]?
Answer: IC50 [1]: > 5 µM; IC50 [2]: > 5 µM; IC50 [3]: > 5 µM; IC50 [4]: > 5 µM; IC50 [5]: > 5 µM; IC50 [6]: > 5 µM; IC50 [7]: > 5 µM; IC50 [8]: > 5 µM; IC50 [9]: > 5 µM; IC50 [10]: > 5 µM; IC50 [11]: > 5 µM; IC50 [12]: > 5 µM; IC50 [13]: > 5 µM; IC50 [14]: > 5 µM; IC50 [15]: 4.89 µM; IC50 [16]: > 5 µM; IC50 [18]: > 5 µM; IC50 [19]: > 5 µM; IC50 [20]: > 5 µM; IC50 [21]: > 5 µM; IC50 [22]: > 5 µM; IC50 [23]: 2.28 µM; IC50 [24]: > 5 µM; IC50 [25]: > 5 µM; IC50 [26]: > 5 µM; IC50 [27]: > 5 µM; IC50 [28]: > 5 µM; IC50 [29]: > 5 µM; IC50 [30]: > 5 µM; IC50 [31]: > 5 µM; IC50 [32]: > 5 µM; IC50 [33]: > 5 µM; IC50 [34]: > 5 µM; IC50 [35]: > 5 µM; IC50 [36]: > 5 µM; IC50 [37]: > 5 µM; IC50 [38]: > 5 µM; IC50 [39]: > 5 µM; IC50 [40]: > 5 µM; IC50 [41]: > 5 µM; IC50 [42]: > 5 µM; IC50 [43]: > 5 µM; IC50 [44]: > 5 µM; IC50 [45]: > 5 µM; IC50 [46]: > 5 µM; IC50 [47]: > 5 µM; IC50 [48]: 0.916 µM; IC50 [49]: 3.6 µM; IC50 [50]: > 5 µM; IC50 [51]: > 5 µM

Question: What does the source list for `Cn1cc(C2=C(c3ccc(Cl)cc3Cl)C(=O)NC2=O)c2ccccc21` [SB-216763]?
Answer: IC50 [1]: > 10 µM; IC50 [2]: > 10 µM; IC50 [3]: > 10 µM; IC50 [4]: > 10 µM; IC50 [5]: > 10 µM; IC50 [6]: > 10 µM; IC50 [7]: > 10 µM; IC50 [8]: > 10 µM; IC50 [9]: > 10 µM; IC50 [10]: > 10 µM; IC50 [11]: > 10 µM; IC50 [12]: > 10 µM; IC50 [13]: > 10 µM; IC50 [14]: > 10 µM; IC50 [15]: > 10 µM; IC50 [16]: > 10 µM; IC50 [17]: > 10 µM; IC50 [18]: > 10 µM; IC50 [19]: > 10 µM; IC50 [20]: > 10 µM; IC50 [21]: > 10 µM; IC50 [22]: > 10 µM; IC50 [24]: > 10 µM; IC50 [25]: > 10 µM; IC50 [26]: > 10 µM; IC50 [27]: 9.02 µM; IC50 [28]: > 10 µM; IC50 [29]: > 10 µM; IC50 [30]: > 10 µM; IC50 [31]: > 10 µM; IC50 [32]: > 10 µM; IC50 [33]: > 10 µM; IC50 [34]: > 10 µM; IC50 [35]: 6.43 µM; IC50 [36]: > 10 µM; IC50 [37]: > 10 µM; IC50 [38]: > 10 µM; IC50 [39]: > 10 µM; IC50 [40]: > 10 µM; IC50 [41]: > 10 µM; IC50 [42]: > 10 µM; IC50 [43]: > 10 µM; IC50 [44]: > 10 µM; IC50 [45]: > 10 µM; IC50 [46]: > 10 µM; IC50 [47]: > 10 µM; IC50 [48]: > 10 µM; IC50 [49]: > 10 µM; IC50 [50]: > 10 µM; IC50 [51]: > 10 µM
